Experimental findings from EP1247803A2, “Indolinone compounds suitable for modulation of protein kinases” (Sugen, Inc., priority 1996, dated 1998) are described below.

The target in experiment [1] is T1, FLK-1 receptor (Mus musculus, UniProt P35918).
T1 construct: expressed in transfected cells; host or cells: NIH3T3 C7#3
The experiment in a line: FLK-1 ELISA (kinase activity of the FLK-1 receptor in FLK-1/NIH3T3 cells, VEGF stimulated). Type of experiment: cell-based. Put shortly:
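FLK-1-expressing NIH3T3 C7#3 cells, starved overnight in 0.1% FBS medium, were treated with compounds at a 1:200 final dilution (0.5% DMSO) for 2 h at 37 °C, with VEGF stimulation. FLK-1 kinase activity was read by ELISA on anti-rabbit IgG plates using affinity-purified anti-FLK-1 antiserum.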

For experiment [2], the system named is MET. The experiment in a line: MET biochemical kinase assay. Further details: species or system human; concentration or dose not given beside the values. Put shortly:
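Lysate-derived MET, or chimeric receptors, is immobilised on plates through an antibody to the human MET cytoplasmic region. Compounds are added along with kinase buffer supplying ATP and divalent metal ions, and receptor autophosphorylation is quantified by anti-phosphotyrosine ELISA.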

T1 sequence (P35918 20-1345): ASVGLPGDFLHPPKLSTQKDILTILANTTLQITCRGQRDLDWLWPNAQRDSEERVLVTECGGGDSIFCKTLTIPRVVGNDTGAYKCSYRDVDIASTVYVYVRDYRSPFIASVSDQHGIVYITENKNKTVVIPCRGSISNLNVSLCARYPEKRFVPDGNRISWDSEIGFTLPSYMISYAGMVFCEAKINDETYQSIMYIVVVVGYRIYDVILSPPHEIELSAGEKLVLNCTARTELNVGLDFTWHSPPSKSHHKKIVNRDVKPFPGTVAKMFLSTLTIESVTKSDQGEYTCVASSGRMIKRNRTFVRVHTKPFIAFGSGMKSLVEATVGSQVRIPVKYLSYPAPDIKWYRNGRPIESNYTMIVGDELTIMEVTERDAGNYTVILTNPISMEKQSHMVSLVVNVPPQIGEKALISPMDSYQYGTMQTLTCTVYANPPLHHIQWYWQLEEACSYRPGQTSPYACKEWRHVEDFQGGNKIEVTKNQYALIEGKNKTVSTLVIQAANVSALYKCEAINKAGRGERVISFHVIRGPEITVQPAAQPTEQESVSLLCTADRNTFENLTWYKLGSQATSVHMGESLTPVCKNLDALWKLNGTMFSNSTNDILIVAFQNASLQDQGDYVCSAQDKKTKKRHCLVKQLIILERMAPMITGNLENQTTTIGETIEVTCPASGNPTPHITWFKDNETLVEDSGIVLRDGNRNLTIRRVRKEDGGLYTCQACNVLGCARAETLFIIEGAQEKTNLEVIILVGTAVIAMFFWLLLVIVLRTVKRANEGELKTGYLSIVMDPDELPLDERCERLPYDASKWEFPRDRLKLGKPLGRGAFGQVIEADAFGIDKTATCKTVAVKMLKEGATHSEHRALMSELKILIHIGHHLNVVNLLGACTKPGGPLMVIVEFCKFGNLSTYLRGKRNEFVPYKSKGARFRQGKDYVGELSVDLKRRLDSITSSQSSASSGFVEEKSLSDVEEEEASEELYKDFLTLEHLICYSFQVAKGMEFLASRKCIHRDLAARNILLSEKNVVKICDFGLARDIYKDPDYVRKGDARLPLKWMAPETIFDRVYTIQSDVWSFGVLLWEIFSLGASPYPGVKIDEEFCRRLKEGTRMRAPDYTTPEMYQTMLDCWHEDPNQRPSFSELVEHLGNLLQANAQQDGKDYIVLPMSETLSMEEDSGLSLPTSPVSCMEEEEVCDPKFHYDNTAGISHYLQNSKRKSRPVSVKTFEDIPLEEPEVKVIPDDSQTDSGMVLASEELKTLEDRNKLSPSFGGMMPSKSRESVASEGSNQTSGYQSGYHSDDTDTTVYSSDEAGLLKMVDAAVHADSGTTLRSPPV

For the compound `O=C1Nc2ccc(S(=O)(=O)Nc3ccc(C(F)(F)F)cc3)cc2C1=Cc1ccc(C(F)(F)F)cc1` [10722/E11], the “Fik Kinase %Inhibition” value in experiment [1] is 15.3%. In addition, the “Met Kinase % Inhibition” value in experiment [2] was found to be 84.0%.

As to `O=C1Nc2ccc(S(=O)(=O)N3CCOCC3)cc2C1=Cc1cc([N+](=O)[O-])cc(CCl)c1O` [10721/F06], the “Fik Kinase %Inhibition” value in experiment [1] worked out at 2.2%. Moreover, the “Met Kinase % Inhibition” value in experiment [2] was determined as 80.3%.

Consider `O=C1Nc2ccc(S(=O)(=O)Nc3ccc(C(F)(F)F)cc3)cc2C1=Cc1csc([N+](=O)[O-])c1` [10722/E09], for which the “Fik Kinase %Inhibition” value in experiment [1] stood at 16.2%. For the same compound, the “Met Kinase % Inhibition” value in experiment [2] worked out at 55.1%.

Turning to `CC(C)(C)c1cc(C=C2C(=O)Nc3c(Br)cc(Br)cc32)cc([N+](=O)[O-])c1O` [10722/A02], the “Fik Kinase %Inhibition” value in experiment [1] is on record as 0.8%. For the same compound, the “Met Kinase % Inhibition” value in experiment [2] is 44.9%.

With `O=C1Nc2ccc(I)cc2C1=Cc1ccc(F)cc1F` [10722/B06], in experiment [1], the “Fik Kinase %Inhibition” value turned out to be 13.9%. In addition, the “Met Kinase % Inhibition” value in experiment [2] is reported as 72.6%.

Turning to `CC(C)(C)c1cc(C=C2C(=O)Nc3ccc(I)cc32)cc(Cl)c1O` [10722/B08], in experiment [1], the “Fik Kinase %Inhibition” value is 11.2%. Moreover, the “Met Kinase % Inhibition” value in experiment [2] came out at 72.0%.

With `CNS(=O)(=O)c1ccc2c(c1)C(=Cc1cc([N+](=O)[O-])c(O)c(C(C)(C)C)c1)C(=O)N2` [10722/D02], the “Fik Kinase %Inhibition” value in experiment [1] is on record as 30.7%. Further, the “Met Kinase % Inhibition” value in experiment [2] amounted to 26.4%.

Turning to `O=C1Nc2c(Br)cc(Br)cc2C1=Cc1cccs1` [10717/A03], in experiment [1], the “Fik Kinase %Inhibition” value was determined as 2.9%. Also, the “Met Kinase % Inhibition” value in experiment [2] worked out at 54.6%.

Take `CNS(=O)(=O)c1ccc2c(c1)C(=Cc1cc(Br)c(O)c(C(C)(C)C)c1)C(=O)N2` [10721/D10]: in experiment [1], the “Fik Kinase %Inhibition” value is 23.7%. Also, in experiment [2], the “Met Kinase % Inhibition” value was 13.4%.

On to `Cc1cc(C)c(C=C2C(=O)Nc3ccc(S(=O)(=O)Nc4ccc(C(F)(F)F)cc4)cc32)[nH]1` [10721/E08], for which, in experiment [1], the “Fik Kinase %Inhibition” value is 15.7%. Besides, the “Met Kinase % Inhibition” value in experiment [2] turned out to be 39.5%.
